In the supplement of paper PMC13380429:

What was measured:
Details in all cases: 72 h
HepG2 [1] = test: relative viability EC50 (midpoint between 100% and the lowest measured viability); higher = less toxic
Vero E6 [2] = test: as above
U2OS [3] = test: as above
Calu-3 [4] = test: as above
Caco-2 [5] = test: as above
HepG2 [6] = test: cell viability relative to DMSO; higher = less toxic
Vero E6 [7] = test: as above
U2OS [8] = test: as above
Calu-3 [9] = test: as above
Caco-2 [10] = test: as above
HepG2 [11] = test: drug sensitivity score (DSS) for viability; higher = more toxic; extreme values may be limits of the assay
Vero E6 [12] = test: as above
U2OS [13] = test: as above
Calu-3 [14] = test: as above
Caco-2 [15] = test: as above

Row | Compound | relative viability EC50 (HepG2 [1]) [µM] | relative viability EC50 (Vero E6 [2]) [µM] | relative viability EC50 (U2OS [3]) [µM] | relative viability EC50 (Calu-3 [4]) [µM] | relative viability EC50 (Caco-2 [5]) [µM] | cell viability (HepG2 [6]; 1 nM) [%] | cell viability (HepG2 [6]; 10 nM) [%] | cell viability (HepG2 [6]; 100 nM) [%] | cell viability (HepG2 [6]; 1000 nM) [%] | cell viability (HepG2 [6]; 10000 nM) [%] | cell viability (Vero E6 [7]; 1 nM) [%] | cell viability (Vero E6 [7]; 10 nM) [%] | cell viability (Vero E6 [7]; 100 nM) [%] | cell viability (Vero E6 [7]; 1000 nM) [%] | cell viability (Vero E6 [7]; 10000 nM) [%] | cell viability (U2OS [8]; 1 nM) [%] | cell viability (U2OS [8]; 10 nM) [%] | cell viability (U2OS [8]; 100 nM) [%] | cell viability (U2OS [8]; 1000 nM) [%] | cell viability (U2OS [8]; 10000 nM) [%] | cell viability (Calu-3 [9]; 1 nM) [%] | cell viability (Calu-3 [9]; 10 nM) [%] | cell viability (Calu-3 [9]; 100 nM) [%] | cell viability (Calu-3 [9]; 1000 nM) [%] | cell viability (Calu-3 [9]; 10000 nM) [%] | cell viability (Caco-2 [10]; 1 nM) [%] | cell viability (Caco-2 [10]; 10 nM) [%] | cell viability (Caco-2 [10]; 100 nM) [%] | cell viability (Caco-2 [10]; 1000 nM) [%] | cell viability (Caco-2 [10]; 10000 nM) [%] | drug sensitivity score (HepG2 [11]) | drug sensitivity score (Vero E6 [12]) | drug sensitivity score (U2OS [13]) | drug sensitivity score (Calu-3 [14]) | drug sensitivity score (Caco-2 [15])
1 | O=S(=O)(NCCCCCCc1ccccc1)c1cccc2c(Cl)cccc12 [SC-9] | > 10 | > 10 | > 10 | > 10 | > 10 | 105 | 96.6 | 103 | 108 | 119 | 99 | 101 | 96.8 | 102 | 107 | 94.6 | 97.9 | 92.7 | 97.4 | 99.5 | 102 | 108 | 102 | 96.8 | 101 | 91.8 | 89 | 87.2 | 101 | 94.5 | 0 | 0 | 0 | 0 | 0
2 | CCCCCCCNS(=O)(=O)c1cccc2c(Cl)cccc12 [SC-10] | > 10 | > 10 | > 10 | > 10 | > 10 | 98.3 | 94.8 | 108 | 97.5 | 96.3 | 117 | 95.8 | 102 | 100 | 95.3 | 97.7 | 98.1 | 93.5 | 103 | 96.2 | 99.7 | 106 | 93.8 | 105 | 105 | 112 | 99.9 | 84.6 | 123 | 90.7 | 0 | 0 | 0 | 0 | 0
3 | CN(Cc1ccccc1)C(=O)[C@H](Cc1ccc2ccccc2c1)NC(=O)[C@@H]1CCCN1C(=O)Nc1ccccc1[N+](=O)[O-] [SDZ-NKT-343] | > 10 | > 10 | > 10 | > 10 | > 10 | 102 | 93.9 | 103 | 93.6 | 92.2 | 102 | 98.7 | 106 | 97.7 | 99.2 | 105 | 103 | 101 | 106 | 87.3 | 95 | 93.7 | 98.9 | 97.3 | 90.7 | 96.3 | 97.3 | 96.1 | 89 | 75.1 | 0 | 0 | 0 | 0 | 1.7
4 | COc1cn(-c2ccc(-n3cccn3)cc2F)nc(-c2ccnn2-c2ccccc2)c1=O [TAK-063] | > 10 | > 10 | > 10 | > 10 | > 10 | 99.7 | 95.5 | 102 | 105 | 106 | 91.7 | 97.3 | 103 | 90 | 104 | 97.3 | 99.6 | 97.1 | 101 | 102 | 92.1 | 95.4 | 98.8 | 102 | 109 | 88.1 | 95.7 | 91.1 | 97.4 | 105 | 0 | 0 | 0 | 0 | 0
5 | COc1cc2c(NC3CCN(C)CC3)nc(N3CCCN(C)CC3)nc2cc1OCCCN(C)C [UNC0224] | > 10 | > 10 | > 10 | > 10 | > 10 | 90.3 | 97.4 | 98.8 | 101 | 95.9 | 96.7 | 102 | 101 | 102 | 98.1 | 103 | 96 | 104 | 101 | 101 | 143 | 103 | 94.2 | 97.9 | 98.9 | 99.3 | 101 | 89.9 | 95.8 | 103 | 0 | 0 | 0 | 0 | 0
6 | Nc1c(-c2cccc(C(F)(F)F)c2)nsc1C(=O)O [amflutizole] | > 10 | > 10 | > 10 | > 10 | > 10 | 97.1 | 100 | 92.1 | 108 | 96.9 | 96.8 | 97.8 | 97.7 | 99.1 | 113 | 101 | 99.5 | 103 | 96.9 | 98.1 | 104 | 94.1 | 104 | 97 | 104 | 96.2 | 96.6 | 99.1 | 99.1 | 107 | 0 | 0 | 0 | 0 | 0
